Here are results for 11 compounds from patent US11358973B2, “Di(hetero)aryl macrocyclic compound for inhibiting protein kinase activity” (Shenzhen TargetRx, Inc., priority 2018, dated 2022).

Where two headings read alike, the source gives them in different places. Where only a bound is given, the exact number is not on record here.

One data set has as its system KM12 cell line. Nature of the data set: KM12 cell proliferation analysis (CellTiter-Glo). Format: cell-based. As to conditions: Homo sapiens, 72 h. As to the method:
The CGT method was used to detect the in vitro anti-proliferative activity of the compounds of the present disclosure on tumor cells cultured in vitro. The KM12 cell line was maintained in RPMI-1640 medium containing 10% fetal bovine serum and antibiotics, the cells in the logarithmic growth phase were harvested and planted in a 96-well plate. The plate was incubated in an incubator at 37° C., containing 5% carbon dioxide gas overnight. After the test compounds were dissolved in DMSO, a 3-fold concentration gradient dilution with 9 compound concentrations was made. Pre-prepared compounds of different concentrations were transferred to the cell plate in triplicate for each concentration, and continue culturing for 72 h. The final concentration of DMSO in the system was 0.1%, and the initial concentration of the test compound was 300 nM.
CellTiter-Glo reagent was added to the cell plate, and incubated at room temperature for 30 minutes to stabilize the optical signal. Detection was carried out by PerkinElmer Envision microplate reader for determining the inhibitory activity of the compound of the present disclosure at various concentrations on cell proliferation. The inhibitory activity of compounds at different concentrations on cell proliferation was fitted according to Graphpad 5.0 software, and IC50 values were calculated.

A further data set deals with TRKC kinase (Homo sapiens, UniProt Q16288). Nature of the data set: Biochemical kinase analysis (HTRF), TRKC. The following applies: 23° C., read-out: Kinase IC50 (nM) TRK C. Here is the method:
(§1) Inhibition of TRKA, TRKB, TRKC kinases can be measured by HTRF ([…]) method. The reaction was performed in a 384-well plate at 23° C. with a volume of 20 μL. TRKA TRKB or TRKC kinase were mixed with pre-formulated and diluted compounds of different concentrations for ten minutes in duplicate for each concentration, wherein 11 concentrations made with a 3-fold gradient dilution from the starting concentration of 300 nM were made and the final concentration of DMSO was 2%. The corresponding substrate and ATP were added thereto, and reacted at room temperature for 20 minutes (both a negative and a positive control were set: negative control is blank control, positive control is Entrectinib). After the reaction, detection reagent was added thereto (reagent in HTRF Kinase TK kit), and after incubation at room temperature for 30 minutes, detection was carried out by PerkinElmer Envision microplate reader for determining enzyme activity in the presence of the compounds of the present disclosure at various concentrations, and the inhibitory activity of different concentrations of compounds against enzyme activity was calculated. After that, in accordance with four-factors function and Graphpad 5.0 software, inhibitory activity on enzyme activity under different concentrations of compounds was fitted and IC50 values were calculated.
(In general: Time-resolved FRET reads energy transfer from a long-lived donor to a nearby acceptor.)

The target in another data set is TRKB kinase (Homo sapiens, UniProt Q16620). Nature of the data set: Biochemical kinase analysis (HTRF), TRKB. As to conditions: 23° C., read-out: Kinase IC50 (nM) TRK B. As to the method: as §1
TRKB kinase, sequence (Q16620 32-822): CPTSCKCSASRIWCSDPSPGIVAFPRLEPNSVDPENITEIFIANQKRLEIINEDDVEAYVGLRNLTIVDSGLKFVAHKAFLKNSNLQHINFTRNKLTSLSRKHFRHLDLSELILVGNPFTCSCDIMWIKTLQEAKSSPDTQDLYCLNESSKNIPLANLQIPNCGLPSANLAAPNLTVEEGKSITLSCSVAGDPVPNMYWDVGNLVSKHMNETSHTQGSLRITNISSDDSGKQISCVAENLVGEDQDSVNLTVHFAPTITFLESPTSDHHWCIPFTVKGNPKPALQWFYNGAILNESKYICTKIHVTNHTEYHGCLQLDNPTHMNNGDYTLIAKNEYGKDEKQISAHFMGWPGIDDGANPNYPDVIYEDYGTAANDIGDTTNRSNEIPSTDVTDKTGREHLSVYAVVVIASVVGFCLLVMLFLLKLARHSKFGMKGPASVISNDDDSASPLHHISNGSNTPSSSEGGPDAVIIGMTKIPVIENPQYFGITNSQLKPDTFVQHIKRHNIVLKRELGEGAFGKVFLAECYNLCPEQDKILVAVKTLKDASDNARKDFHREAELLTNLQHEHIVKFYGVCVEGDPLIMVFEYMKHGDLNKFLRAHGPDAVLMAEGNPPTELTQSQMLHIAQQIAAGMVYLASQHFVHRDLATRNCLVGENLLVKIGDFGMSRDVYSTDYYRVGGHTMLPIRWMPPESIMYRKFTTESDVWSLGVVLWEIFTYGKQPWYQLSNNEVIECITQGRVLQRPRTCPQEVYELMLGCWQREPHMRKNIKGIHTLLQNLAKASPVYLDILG
The target of a further data set is TRKA kinase (Homo sapiens, UniProt P04629). Nature of the data set: Biochemical kinase analysis (HTRF), TRKA. The following applies: 23° C., read-out: Kinase IC50 (nM) TRK A. As to the method:
as §1

Data set [1] can be described thus: Pharmacokinetic experiment in rats. As to conditions: rat; for AUC(0-t) / Cmax / Tmax / half-life / AUC(0-inf) / MRT inf / bioavailability: male, Sprague-Dawley, plasma; for AUC(0-inf): read-out: AUCINF_pred; for MRT inf: read-out: MRTINF_pred; for bioavailability: PO 10 mg/kg vs IV 3 mg/kg. Type of data set: in vivo, Sprague-Dawley rats. Also noted: Cl_pred (L/kg): unit not given here. As to the method:
6 male Sprague-Dawley rats (7-8 weeks old, and weighing approximately 210 g) were divided into 2 groups with 3 rats in each group. The rats were intravenously or orally administered a single dose of compounds (3 mg/kg intravenously, 10 mg/kg orally) to compare pharmacokinetic differences.
The rats were feeded on standard food and water. Fasting was started 16 hours before the test. The drug was dissolved in PEG400 and dimethyl sulfoxide. The blood samples were collected from eyelids at the time points of 0.083 hour, 0.25 hour, 0.5 hour, 1 hour, 2 hours, 4 hours, 6 hours, 8 hours, 12 hours, and 24 hours after administration.
Rats were briefly anesthetized after inhalation of diethyl ether and 300 μL of blood sample was collected from the eyelids into test tubes. There was 30 μL of 1% heparin salt solution in the test tube. Tubes were dried at 60° C. overnight before use. After the blood sample was collected at the last time point, the rats were sacrificed after ether anesthesia.
Immediately after the collection of the blood sample, the test tube was gently inverted at least 5 times to ensure sufficient mixing and then placed on ice. The blood sample was centrifuged at 5000 rpm at 4° C. for 5 minutes to separate the plasma from the red blood cells. 100 μL of plasma was aspirated into a clean plastic centrifuge tube with a pipette, marking with the name of the compound and time point. Plasma was stored at −80° C. prior to analysis. The concentration of the compound of the present disclosure in plasma was determined by LC-MS/MS. The pharmacokinetic parameters were calculated based on the blood concentration of the drug for each animal at different time points.

TRKA kinase, sequence (P04629 33-796): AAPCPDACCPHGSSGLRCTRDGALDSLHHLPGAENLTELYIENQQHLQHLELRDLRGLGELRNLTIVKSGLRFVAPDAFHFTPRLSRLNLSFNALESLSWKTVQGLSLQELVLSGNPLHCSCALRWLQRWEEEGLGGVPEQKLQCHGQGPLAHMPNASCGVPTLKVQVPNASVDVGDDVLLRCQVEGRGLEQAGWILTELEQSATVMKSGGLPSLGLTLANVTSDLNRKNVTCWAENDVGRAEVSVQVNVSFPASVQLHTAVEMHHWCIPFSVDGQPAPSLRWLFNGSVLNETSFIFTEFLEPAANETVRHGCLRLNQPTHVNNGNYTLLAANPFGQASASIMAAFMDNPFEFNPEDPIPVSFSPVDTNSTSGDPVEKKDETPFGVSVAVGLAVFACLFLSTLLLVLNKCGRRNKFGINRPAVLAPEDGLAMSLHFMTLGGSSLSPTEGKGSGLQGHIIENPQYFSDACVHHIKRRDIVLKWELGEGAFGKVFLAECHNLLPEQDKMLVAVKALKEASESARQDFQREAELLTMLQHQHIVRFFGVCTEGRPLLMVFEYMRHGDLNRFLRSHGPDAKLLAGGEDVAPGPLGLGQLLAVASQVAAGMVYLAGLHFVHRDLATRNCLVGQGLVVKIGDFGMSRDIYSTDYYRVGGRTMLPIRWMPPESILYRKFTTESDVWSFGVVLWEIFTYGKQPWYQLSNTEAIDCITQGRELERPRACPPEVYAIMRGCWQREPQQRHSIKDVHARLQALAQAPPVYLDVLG
TRKC kinase, sequence (Q16288 32-839): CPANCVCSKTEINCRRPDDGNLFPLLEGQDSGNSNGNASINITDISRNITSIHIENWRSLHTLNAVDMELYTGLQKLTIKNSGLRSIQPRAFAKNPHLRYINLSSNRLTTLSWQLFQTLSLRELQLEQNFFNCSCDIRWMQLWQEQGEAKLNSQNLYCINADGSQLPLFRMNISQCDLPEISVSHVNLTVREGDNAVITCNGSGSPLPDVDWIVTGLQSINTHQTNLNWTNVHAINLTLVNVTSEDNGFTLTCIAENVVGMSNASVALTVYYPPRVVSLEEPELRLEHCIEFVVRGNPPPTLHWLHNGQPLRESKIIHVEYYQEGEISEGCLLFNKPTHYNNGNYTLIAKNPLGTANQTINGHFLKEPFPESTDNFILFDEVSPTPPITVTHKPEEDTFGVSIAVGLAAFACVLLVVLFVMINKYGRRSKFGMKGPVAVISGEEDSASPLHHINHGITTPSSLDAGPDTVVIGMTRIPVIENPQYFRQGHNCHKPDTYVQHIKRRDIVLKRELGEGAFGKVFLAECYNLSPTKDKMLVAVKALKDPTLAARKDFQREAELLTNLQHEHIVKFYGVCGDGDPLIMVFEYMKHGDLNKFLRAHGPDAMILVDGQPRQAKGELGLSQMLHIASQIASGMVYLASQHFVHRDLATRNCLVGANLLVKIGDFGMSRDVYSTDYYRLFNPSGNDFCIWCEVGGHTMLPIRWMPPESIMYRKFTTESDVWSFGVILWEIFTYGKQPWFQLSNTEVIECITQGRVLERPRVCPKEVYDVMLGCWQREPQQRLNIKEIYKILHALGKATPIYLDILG

What is called IC50 is the concentration that gives 50% inhibition. In the case of `O=C1CCOc2ccc(F)cc2C2CCCN2c2ccn3ncc(c3n2)N1` (racemic) [Compound 9a, 9-fluoro-13-oxa-2,17,20,21,24-pentaazapentacyclo[16.5.2.0^2,6.0^7,12.0^21,25]pentacosane-1(24),7,9,11,18(25),19,22-heptaene-16-one], the 50% inhibitory concentration (IC50) came to 1.78 nM in the data set with KM12 cell line, 0.1 nM on TRKC kinase, 0.1 nM at TRKB kinase and 0.17 nM on TRKA kinase.

In general, AUC(0-t) refers to the area under the concentration-time curve up to a stated or last time point. The term Cmax denotes the peak of the concentration-time curve. By Tmax is commonly meant the time at which the peak concentration occurs. The term half-life denotes the time needed for the level to fall by half in the phase considered. In general, bioavailability refers to the share of a dose that reaches the circulation, judged against a reference dose that is usually intravenous. In the case of `O=C1CCOc2ccc(F)cc2[C@H]2CCCN2c2ccn3ncc(c3n2)N1` [Compound L-1-A, (6R)-9-fluoro-13-oxa-2,7,20,21,24-pentaazapentacyclo[16.5.2.0^26.0^7,12.0^21,25]pentacosane-1(24),7,9,11,18(25),19,22-heptaene-16-one], in data set [1] (IV 3 mg/kg), the AUC(0-t) came out at 5010 ng·h/mL, the concentration peaked (Cmax) at 2160 ng/mL, the time to peak (Tmax) was 0.08 h and the half-life is 2.2 h. Moreover, in data set [1] (IV 3 mg/kg), the AUC(0-inf) stood at 5030 ng·h/mL, the MRT inf was 2.18 h, the “Cl_pred (L/kg)” value is 0.60 and the “Vz_pred” value was found to be 1.75 L/kg. Besides, in data set [1] (PO 10 mg/kg), the exposure AUC(0-t) was determined as 11300 ng·h/mL, the Cmax stood at 1490 ng/mL, the time of peak concentration (Tmax) came to 1.58 h and the half-life was 5.77 h. In data set [1] (PO 10 mg/kg), the AUC(0-inf) amounted to 11300 ng·h/mL, the MRT inf was 4.9 h, the “Cl_pred (L/kg)” value is on record as 0.92 and the “Vz_pred” value is reported as 2.92 L/kg. Moreover, the bioavailability in data set [1] was determined as 67.9%. Moreover, inhibition in the data set on KM12 cell line was half-maximal at 0.55 nM (IC50). Further, the half-maximal inhibitory concentration (IC50) at TRKC kinase was 0.14 nM. In addition, the half-maximal inhibitory concentration (IC50) at TRKB kinase stood at 0.1 nM. In addition, the IC50 at TRKA kinase is 0.18 nM.

Regarding `O=C1CCOc2ccc(F)cc2[C@@H]2CCCN2c2ccn3ncc(c3n2)N1` [Compound L-1-B, (6S)-9-fluoro-13-oxa-2,17,20,21,24-pentaazapentacyclo[16.5.2.0^2,6.0^7,12.0^21,25]pentacosane-1(24),7,9,11,18(25),19,22-heptaene-16-one], the half-maximal inhibitory concentration (IC50) in the data set on KM12 cell line came to 162 nM; at TRKC kinase it was 14.2 nM; at TRKB kinase, 15.5 nM; on TRKA kinase, 21.1 nM.

As to `C[C@H]1CC(=O)Nc2cnn3ccc(nc23)N2CCC[C@H]2c2cc(F)ccc2O1` [Compound L-2-B, (6S,14S)-9-fluoro-14-methyl-13-oxa-2,17,20,21,24-pentaazapentacyclo[16.5.2.0^2,6.0^7,12.0^21,25]pentacosane-1(24),7,9,11,18(25),19,22-heptaene-16-one], the half-inhibitory concentration (IC50) in the data set on KM12 cell line was 0.65 nM; on TRKC kinase, 0.18 nM; on TRKB kinase it was 0.13 nM; on TRKA kinase it was 0.41 nM.

As for `CC1(C)COc2ccc(F)cc2[C@@H]2CCCN2c2ccn3ncc(c3n2)NC1=O` [Compound L-3-B, (6S)-9-fluoro-15,15-dimethyl-13-oxa-2,17,20,21,24-pentaazapentacyclo[16.5.2.0^2,6.0^7,12.0^21,25]pentacosane-1(24),7,9,11,18(25),19,22-heptaene-16-one], the IC50 at TRKC kinase is more than 100 nM; on TRKB kinase, 70.8 nM; on TRKA kinase it was more than 100 nM.

As for `C[C@@H]1Nc2ccn3ncc(c3n2)NC(=O)C[C@H](C)Oc2ccc(F)cc21` [Compound T-2-B, (7S,13S)-11-fluoro-7,13-dimethyl-6,7,13,14-tetrahydro-1,15-ethenopyrazolo[4,3-f][1,4,8,10]benzoxatriazacyclotidecin-5(6H)-one], the IC50 was determined as 4.79 nM in the data set with KM12 cell line, 0.09 nM at TRKC kinase, 0.09 nM on TRKB kinase and 0.36 nM at TRKA kinase.

As for `C[C@H]1Nc2ccn3ncc(c3n2)NC(=O)C(C)(C)COc2ccc(F)cc21` [Compound T-3], the values for the half-inhibitory concentration (IC50) at TRKC kinase, at TRKB kinase and at TRKA kinase were 0.52 nM, 0.57 nM and 0.34 nM, respectively.

Take `C[C@H]1Nc2ccn3ncc(c3n2)NC(=O)NCCOc2ccc(F)cc21` [Compound T-4, (14R)-12-fluoro-14-methyl-5,6,7,8,14,15-hexahydro-1,16-ethenopyrazolo[4,3-g][1,4,9,11]benzoxatetraazacyclotetradecin-5(6H)-one]: the figures for the IC50 at TRKC kinase, on TRKB kinase and on TRKA kinase were 5.41 nM, 5.31 nM and 4.91 nM, respectively.

As for `C[C@H]1Nc2ccn3ncc(c3n2)NC(=O)NCCCc2ccc(F)cc21` [Compound T-5, (14R)-12-fluoro-14-methyl-5,6,7,8,14,15-hexahydro-1,16-ethenopyrazolo[4,3-g][1,4,9,11]benzodioadiazatridecin-5(6H)-one], the values for the IC50 on TRKC kinase, at TRKB kinase and at TRKA kinase were 258 nM, 225 nM and 93.9 nM, respectively.

As for `C[C@@H]1CCc2ncc(F)cc2[C@H]2CCCN2c2ccn3ncc(c3n2)C(=O)N1` [LOXO-195, reference compound], in data set [1] (IV 3 mg/kg), the area under the curve AUC(0-t) is 4670 ng·h/mL, the peak level (Cmax) was 5010 ng/mL, the Tmax stood at 0.08 h and the half-life is 1.45 h. Besides, in data set [1] (IV 3 mg/kg), the AUC(0-inf) was determined as 4670 ng·h/mL, the MRT inf came out at 0.54 h and the “Vz_pred” value stood at 0.75 L/kg. Further, in data set [1] (PO 10 mg/kg), the AUC(0-t) turned out to be 4070 ng·h/mL, the peak level (Cmax) was 1660 ng/mL, the Tmax was found to be 0.33 h and the half-life was 4.11 h. Moreover, in data set [1] (PO 10 mg/kg), the AUC(0-inf) came to 4090 ng·h/mL, the MRT inf stood at 2.31 h and the “Vz_pred” value is listed as 5.13 L/kg. This compound had a bioavailability in data set [1] of 26.2%. Further, it took 2.73 nM to reach half-maximal inhibition in the data set with KM12 cell line (IC50).

Turning to `C[C@H]1CNC(=O)c2cnn3ccc(nc23)N[C@H](C)c2cc(F)ccc2O1` [TPX-0005, reference compound], in data set [1] (IV 3 mg/kg), the AUC(0-t) was 3560 ng·h/mL, the peak level (Cmax) was 2190 ng/mL, the time to peak (Tmax) stood at 0.08 h and the half-life was 5.77 h. Also, in data set [1] (IV 3 mg/kg), the AUC(0-inf) was found to be 3580 ng·h/mL, the MRT inf amounted to 1.76 h and the “Vz_pred” value was 4.46 L/kg. For the same compound, in data set [1] (PO 10 mg/kg), the AUC(0-t) worked out at 5470 ng·h/mL, the Cmax came to 732 ng/mL, the Tmax was 1.67 h and the half-life is 0.76 h. Besides, in data set [1] (PO 10 mg/kg), the AUC(0-inf) was 5590 ng·h/mL, the MRT inf amounted to 5.42 h and the “Vz_pred” value was 15.81 L/kg. For the same compound, the bioavailability in data set [1] turned out to be 46.1%. For the same compound, the midpoint of inhibition in the data set with KM12 cell line, the IC50, lay at 1.97 nM.
